Assay results reported in patent US20260183305A1, “METHYLENE BLUE FOR USE IN THERAPY OF HEPATITIS B AND/OR HEPATITIS D INFECTION” (priority 2022, published 2026).
Entries after “also recorded” stand apart in the source; their conditions may differ.

Columns and labels:
[1] = system: HepNB2.7 cells; experiment: MTT cell viability assay, cytotoxicity of MB on HepNB2.7; assay type: cell-based; conditions: HepNB2.7, MTT
[2] = system: HDV; experiment: MB HDV inhibition assay (HDV RNA by RT-qPCR) on HepG2-NTCP cells; assay type: cell-based, Hepatitis D Virus; conditions: MB 2.5 or 1.25 μg/mL; for HDV RNA concentration: HepG2-NTCP
Protocol: (§1) HepG2-NTCP or HepNB2.7 cells were infected with different titers of HDV (10, 50 MOI) and treated with 2.5 or 1.25 μg/ml of MB for 5 hours.
(§2) HepG2-NTCP and HepNB2.7 cells (plated at 10×10^3 cells/well) were infected with 10 or 50 MOI of HDV using PEG (polyethylene glycol) 4% overnight as previously described (Alfaiate D, Lucifora J et al.; cf. above). MB (2.5 or 1.25 μg/ml) was added 16 hrs post HDV infection for 5 h and cells were incubated at room temperature in the dark. Three and six days post infection, RNA was extracted and HDV RNA level was monitored by RT-qPCR in order to determine HDV replication as described below. For HepNB2.7, the level of HBsAg in the supernatant were measured as described below.
(§3) Total intracellular RNA was extracted using the Nucleospin RNA Kit (Macherey-Nagel AG). cDNA was synthesized from 100 ng total RNA using Superscript II and random hexamer primers (Roche Diagnosis). Quantification of HDV was performed by qRT-PCR as described (Alfaiate D, Lucifora J et al), using the primers described by Scholtes & colleagues (Scholtes C, Icard V, Amiri M et al; “Standardized one-step real-time reverse transcription-PCR assay for universal detection and quantification of hepatitis delta virus from clinical samples in the presence of a heterologous internal-control RNA.” J Clin Microbiol 2012;50:2126-2128.) and EEF1A1 as housekeeping gene.
(§4) HepG2-NTCP or HepNB2.7 cells were infected with different titers of HDV (10, 50, 100 MOI) and treated with 2.5 or 1.25 μg/ml of MB for 5 hours. Cells were analyzed at day 3 or day 6 post-infection and HDV replication was assessed by RT-PCR. For HepNB2.7, the level of HBsAg in the supernatant were measured at both time points.
The inhibitory effect of MB on HDV replication on HepG2-NTCP cells was investigated. Cells infected with either 10 or 50 MOI of virus were treated with MB (2.5 or 1.25 μg/ml) and HDV replication was assessed at 3 days (A) or 6 days (B) post infection.

[3] = system: HDV; experiment: MB HDV inhibition assay (HDV RNA by RT-qPCR) on HepNB2.7 cells; assay type: cell-based, Hepatitis D Virus
Protocol: as §1, §2, §3, §4
The inhibitory effect of MB on HDV replication on HepNB2.7 cells was investigated. In a first experiment cells infected with either 10 or 50 MOI were treated with MB (2.5 or 1.25 μg/ml) and HDV replication was assessed at 3 days, or 6 days, post infection.

[4] = system: HBV surface antigen (HBsAg); experiment: HBsAg measurement by ELISA in supernatant of HDV infected HepNB2.7 cells; assay type: cell-based, Hepatitis B Virus
Protocol: as §2
For HepNB2.7, the level of HBsAg in the supernatant were measured at both time points by ELISA (Enzyme-Linked Immosorbent Assay, ABBOTT PRISM® HBsAg) according to the protocol of the manufacturer.
as §4
In a second experiment the secretion of the HBV surface antigen (HBsAg) was measured in the supernatant of cells infected with 10, 50 or 100 MOI and treated with MB (2.5 or 1.25 μg/ml).

[5] = transplacental exposure, mouse; cited from earlier work
[6] = system: Influenza N1H1 virus; conditions: in vitro, hermetically closed box; cited from earlier work
[7] = system: SARS-COV-2; conditions: in vitro, hermetically closed box; cited from earlier work
[8] = Brazilian children, long periods of time; cited from earlier work
[9] = after oral administration; cited from earlier work
[10] = 5 mg/ml solution for injection; cited from earlier work

Structure (SMILES): CN(C)c1ccc2nc3ccc(N(C)C)cc3[s+]c2c1.[Cl-] [MB, [7-(dimethylamino)phenothiazin-3-ylidene]-dimethylazanium, chloride]
- long-term cytotoxic effect (percentage of viability) ([1]; 3 days after incubation with different concentrations of MB): significant toxicity
- cytotoxic effect of MB in the presence of light as compared to dark ([1]; dark vs photoactivated under visible light, 3 days after incubation): not significantly enhanced
- HDV RNA concentration ([2]; 10 MOI): too low to distinguish the antiviral impact of MB
- HDV RNA concentration ([2]; 50 MOI, 3 and 6 days post infection): clear dose response relationship
- antiviral effect of MB against HDV infected HepG2-NTCP cells ([2]; physiological drug concentrations): significant antiviral effect
- HDV replication signal ([3]; HepNB2.7, 10 MOI, day 3 and 6): weak signal
- effect of MB on viral reproduction (HDV replication) ([3]; HepNB2.7, 50 MOI, day 6 post infection, MB 2.5 or 1.25 μg/ml): dose related effect
- viral markers under long-term treatment (extrapolated) ([3]; long-term treatment (weeks instead of days), cell lines, no data shown): complete disappearance of viral markers
- secretion of the HBV surface antigen (HBsAg) in the supernatant ([4]; HepNB2.7 infected with 10, 50 or 100 MOI HDV, MB 2.5 or 1.25 μg/ml, all conditions tested): diminished secretion; also recorded: clear-cut dose/response relationship
- antiviral effect of MB over time ([4]; results on day 3 and 6): accumulates over time
- teratogenicity [5]: teratogenic
- antiviral efficacy in the total dark [6]: strong antiviral efficacy
- antiviral efficacy in the total dark [7]: strong antiviral efficacy
- dose tolerated very well [8]: 20-50 mg/kg per day
- bioavailability [9]: 72%
- elimination half-life [9]: 18 h
- compatibility with 0.9% saline solution [10]: not compatible
- compatibility with 5% glucose or 5% dextrose solution [10]: compatible
